Source: patent publication US9771330B2, “Pyrimidine compounds for the treatment of cancer” (The University of North Carolina at Chapel Hill, priority 2012, dated 2017)

Biological target: T1, Mer (Homo sapiens, UniProt Q12866)
T1 sequence (Q12866 21-999): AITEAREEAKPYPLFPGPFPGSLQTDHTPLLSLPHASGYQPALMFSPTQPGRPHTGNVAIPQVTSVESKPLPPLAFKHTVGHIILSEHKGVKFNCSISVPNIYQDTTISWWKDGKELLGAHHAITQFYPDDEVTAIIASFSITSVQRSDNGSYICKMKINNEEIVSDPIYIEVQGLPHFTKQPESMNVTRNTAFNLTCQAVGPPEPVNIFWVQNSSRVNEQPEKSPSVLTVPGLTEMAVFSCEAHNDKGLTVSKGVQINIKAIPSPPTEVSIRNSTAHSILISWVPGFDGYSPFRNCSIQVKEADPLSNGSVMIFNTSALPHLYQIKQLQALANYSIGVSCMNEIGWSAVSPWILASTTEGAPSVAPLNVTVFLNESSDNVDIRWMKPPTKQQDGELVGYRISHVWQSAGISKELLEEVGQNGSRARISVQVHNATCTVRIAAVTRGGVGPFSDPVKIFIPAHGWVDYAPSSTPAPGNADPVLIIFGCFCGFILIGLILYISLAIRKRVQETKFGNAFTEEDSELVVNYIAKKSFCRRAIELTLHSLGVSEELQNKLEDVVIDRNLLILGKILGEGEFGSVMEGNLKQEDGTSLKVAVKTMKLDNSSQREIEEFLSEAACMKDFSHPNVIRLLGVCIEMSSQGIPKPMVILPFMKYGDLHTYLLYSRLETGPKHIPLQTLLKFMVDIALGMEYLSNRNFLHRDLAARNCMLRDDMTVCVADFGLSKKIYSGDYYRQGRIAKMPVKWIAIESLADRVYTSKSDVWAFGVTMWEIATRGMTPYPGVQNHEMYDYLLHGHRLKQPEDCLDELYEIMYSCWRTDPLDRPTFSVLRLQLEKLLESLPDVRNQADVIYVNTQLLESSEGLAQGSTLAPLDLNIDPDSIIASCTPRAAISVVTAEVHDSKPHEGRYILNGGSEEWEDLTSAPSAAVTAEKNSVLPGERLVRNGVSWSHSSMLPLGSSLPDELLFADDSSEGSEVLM
Experiment: Mer IC50
Assay type: biochemical
Conditions: Table 2, compounds of General Procedure E

IC50: < 0.01 µM
Compound: N[C@H]1CCCCNc2nc(ncc2C(=O)NCC2CCOCC2)NCCCCCCNC1=O [UNC2705A]
